According to US12545673B2, “Imidazopyridine derivative and pharmaceutical composition comprising same as active ingredient” (TSD LIFE SCIENCES CO., LTD., priority 2019, dated 2026):
Read-outs that look alike come from different tables or passages of the source.

Columns and labels:
[1] = system: acute myeloid leukemia cell line U937; assay: Cancer cell proliferation inhibitory activity evaluation 2 (CCK-8), U937; assay type: cell-based; details: Homo sapiens, read-out: Cancer cell proliferation inhibitory activity U937
[2] = system: acute lymphoblastic leukemia cell line Jurkat; assay: Cancer cell proliferation inhibitory activity evaluation 2 (CCK-8), Jurkat; assay type: cell-based; details: Homo sapiens
TGF-β1 = assay: Fibrosis inhibition evaluation 2, palmitic acid-induced HepG2, real-time PCR, TGF-β1
[3] = system: colorectal cancer cell line HT-29; assay: Cancer cell proliferation inhibitory activity evaluation 1 (CCK-8), HT-29; assay type: cell-based; details: Homo sapiens, HT-29, 72 h, read-out: Cancer cell proliferation inhibitory activity HT29
Method: (§1) In order to identify whether the compound has anticancer activity, the human breast cancer cell line MDA-MB-231, the colorectal cancer cell line HT-29, the acute myeloid leukemia cell line U937, and the chronic myeloid leukemia cell line K562 were used. The cell line was cultured using RPMI-1640 medium containing 10% fetal bovine serum. Welgene products were used as the medium, and hyclone products were used for fetal bovine serum, and 1% of antibiotics for cell culture from Gibco were used as the culture medium.

[4] = system: human breast cancer cell line MDA-MB-231; assay: Cancer cell proliferation inhibitory activity evaluation 1 (CCK-8), MDA-MB-231; assay type: cell-based; details: MDA-MB-231, 72 h, read-out: Cancer cell proliferation inhibitory activity MDAMB231
Method: as §1

[5] = system: acute myeloid leukemia cell line U937; assay: Cancer cell proliferation inhibitory activity evaluation 1 (CCK-8), U937; assay type: cell-based; details: Homo sapiens, U-937, 72 h, read-out: Cancer cell proliferation inhibitory activity U937
Method: as §1

Fibronectin-1 = assay: Fibrosis inhibition evaluation 2, palmitic acid-induced HepG2, real-time PCR, Fibronectin-1
[6] = system: chronic myeloid leukemia cell line K562; assay: Cancer cell proliferation inhibitory activity evaluation 1 (CCK-8), K562; assay type: cell-based; details: Homo sapiens, K562, 72 h, read-out: Cancer cell proliferation inhibitory activity K562
Method: as §1

MLK3 = MLK3 (Homo sapiens (Human), UniProt Q16584); assay: Evaluation of inhibitory activity of enzyme units, MLK3 ([γ-33P]-ATP filter assay); details: read-out: IC50(nM) MLK3
Chain of MLK3 (Q16584 whole entry, looked up): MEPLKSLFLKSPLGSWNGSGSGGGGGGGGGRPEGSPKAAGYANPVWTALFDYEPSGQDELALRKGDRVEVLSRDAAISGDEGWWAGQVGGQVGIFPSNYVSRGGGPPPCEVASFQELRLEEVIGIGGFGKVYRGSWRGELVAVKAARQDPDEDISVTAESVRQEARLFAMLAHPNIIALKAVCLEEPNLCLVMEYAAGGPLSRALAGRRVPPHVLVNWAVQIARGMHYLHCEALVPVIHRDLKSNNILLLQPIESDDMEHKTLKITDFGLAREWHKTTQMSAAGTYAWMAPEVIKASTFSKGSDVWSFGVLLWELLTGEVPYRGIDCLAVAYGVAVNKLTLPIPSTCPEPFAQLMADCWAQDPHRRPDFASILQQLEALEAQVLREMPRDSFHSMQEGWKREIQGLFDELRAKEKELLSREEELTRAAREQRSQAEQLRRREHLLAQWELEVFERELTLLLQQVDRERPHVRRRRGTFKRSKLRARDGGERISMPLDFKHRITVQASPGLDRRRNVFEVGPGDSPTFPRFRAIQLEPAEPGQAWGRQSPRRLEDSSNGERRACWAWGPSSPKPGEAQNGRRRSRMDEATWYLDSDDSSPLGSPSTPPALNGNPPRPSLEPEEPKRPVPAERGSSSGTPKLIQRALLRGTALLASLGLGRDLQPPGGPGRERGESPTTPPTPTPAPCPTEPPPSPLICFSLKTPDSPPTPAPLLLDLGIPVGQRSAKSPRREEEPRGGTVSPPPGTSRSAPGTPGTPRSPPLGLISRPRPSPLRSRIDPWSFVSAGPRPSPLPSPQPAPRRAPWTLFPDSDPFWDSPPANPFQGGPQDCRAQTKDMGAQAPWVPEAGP

LRRK2 wild-type = LRRK2 wild-type (Homo sapiens (Human), UniProt Q5S007); assay: Evaluation of inhibitory activity against LRRK2 (affinity bead competition binding), wild-type; details: read-out: Residual active values (%) LRRK2; for remaining binding at 0.1 µM: 100 nM; for remaining binding at 0.5 µM: 500 nM
Chain of LRRK2 wild-type (Q5S007 whole entry, looked up): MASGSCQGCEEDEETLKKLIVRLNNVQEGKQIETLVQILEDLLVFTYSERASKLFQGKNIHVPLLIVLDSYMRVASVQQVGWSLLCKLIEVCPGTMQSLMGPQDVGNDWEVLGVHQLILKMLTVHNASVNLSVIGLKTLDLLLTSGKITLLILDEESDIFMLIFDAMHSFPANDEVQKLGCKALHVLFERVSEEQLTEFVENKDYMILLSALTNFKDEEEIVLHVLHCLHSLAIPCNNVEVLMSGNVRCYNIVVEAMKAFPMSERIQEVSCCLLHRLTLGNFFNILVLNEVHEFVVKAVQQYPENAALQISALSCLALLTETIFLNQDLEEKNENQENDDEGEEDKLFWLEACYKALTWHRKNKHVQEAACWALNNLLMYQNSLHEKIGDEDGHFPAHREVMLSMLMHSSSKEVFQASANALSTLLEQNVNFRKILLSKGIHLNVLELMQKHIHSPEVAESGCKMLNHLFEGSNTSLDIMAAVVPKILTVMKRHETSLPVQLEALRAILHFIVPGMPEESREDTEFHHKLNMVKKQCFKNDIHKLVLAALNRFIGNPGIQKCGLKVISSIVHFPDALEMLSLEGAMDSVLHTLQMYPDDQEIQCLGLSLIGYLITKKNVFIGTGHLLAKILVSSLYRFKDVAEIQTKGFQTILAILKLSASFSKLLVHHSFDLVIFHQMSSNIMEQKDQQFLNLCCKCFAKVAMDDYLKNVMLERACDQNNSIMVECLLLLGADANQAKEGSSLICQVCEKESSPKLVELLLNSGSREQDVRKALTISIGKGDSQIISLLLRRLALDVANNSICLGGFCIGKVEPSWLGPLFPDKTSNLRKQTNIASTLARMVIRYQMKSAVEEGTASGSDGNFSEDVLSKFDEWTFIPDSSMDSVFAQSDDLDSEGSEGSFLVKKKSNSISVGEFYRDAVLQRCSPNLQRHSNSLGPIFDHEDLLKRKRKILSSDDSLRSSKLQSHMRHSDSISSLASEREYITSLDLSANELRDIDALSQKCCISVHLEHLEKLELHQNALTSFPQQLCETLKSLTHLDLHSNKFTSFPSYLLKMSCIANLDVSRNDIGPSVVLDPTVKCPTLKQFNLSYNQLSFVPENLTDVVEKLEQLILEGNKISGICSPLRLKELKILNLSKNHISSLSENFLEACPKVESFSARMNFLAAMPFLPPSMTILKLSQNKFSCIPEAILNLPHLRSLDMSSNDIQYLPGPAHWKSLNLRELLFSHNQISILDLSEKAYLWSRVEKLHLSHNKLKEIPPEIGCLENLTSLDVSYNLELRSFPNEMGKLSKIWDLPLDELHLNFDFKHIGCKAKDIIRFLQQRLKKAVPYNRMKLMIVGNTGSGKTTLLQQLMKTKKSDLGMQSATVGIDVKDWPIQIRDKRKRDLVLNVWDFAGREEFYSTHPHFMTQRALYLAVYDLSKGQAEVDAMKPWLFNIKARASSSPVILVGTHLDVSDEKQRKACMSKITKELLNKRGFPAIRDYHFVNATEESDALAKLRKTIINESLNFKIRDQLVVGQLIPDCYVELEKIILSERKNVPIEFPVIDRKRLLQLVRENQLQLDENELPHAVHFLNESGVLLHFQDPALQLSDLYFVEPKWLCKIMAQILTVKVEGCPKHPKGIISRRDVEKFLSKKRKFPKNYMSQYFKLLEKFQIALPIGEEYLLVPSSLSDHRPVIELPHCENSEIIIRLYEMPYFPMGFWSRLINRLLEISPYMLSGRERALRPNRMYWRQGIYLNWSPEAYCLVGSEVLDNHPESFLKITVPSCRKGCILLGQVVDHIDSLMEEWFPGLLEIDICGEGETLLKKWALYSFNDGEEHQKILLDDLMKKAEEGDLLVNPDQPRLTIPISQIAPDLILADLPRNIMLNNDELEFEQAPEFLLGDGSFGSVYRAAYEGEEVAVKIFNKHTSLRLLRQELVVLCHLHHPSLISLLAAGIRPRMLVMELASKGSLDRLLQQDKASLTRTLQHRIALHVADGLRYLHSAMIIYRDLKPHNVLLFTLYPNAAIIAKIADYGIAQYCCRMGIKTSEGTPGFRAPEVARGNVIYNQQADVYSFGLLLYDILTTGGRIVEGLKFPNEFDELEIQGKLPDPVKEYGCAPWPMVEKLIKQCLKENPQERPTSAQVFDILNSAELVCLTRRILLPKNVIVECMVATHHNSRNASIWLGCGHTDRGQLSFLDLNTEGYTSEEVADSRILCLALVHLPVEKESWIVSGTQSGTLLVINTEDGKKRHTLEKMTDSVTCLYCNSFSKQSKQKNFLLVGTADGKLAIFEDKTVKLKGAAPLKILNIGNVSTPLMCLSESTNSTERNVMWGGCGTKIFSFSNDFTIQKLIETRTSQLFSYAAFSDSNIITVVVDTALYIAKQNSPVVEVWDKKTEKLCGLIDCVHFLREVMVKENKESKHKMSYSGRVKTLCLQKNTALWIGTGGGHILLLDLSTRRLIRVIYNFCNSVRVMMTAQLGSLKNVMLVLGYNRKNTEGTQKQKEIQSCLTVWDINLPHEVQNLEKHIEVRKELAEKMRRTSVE
Summary of the method: (§2)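 Competition binding against immobilized biotinylated ligand for DNA-tagged wild-type or G2019S LRRK2, produced from T7 phage-infected E. coli (MOI 0.4, 32° C.) lysate then HEK293 cells. Beads blocked and washed in SeaBlock buffer (1% BSA, 0.05% Tween 20, 1 mM DTT); compounds prepared as 40× stocks in 100% DMSO.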

LRRK2 mutant (G2019S) = LRRK2 mutant (G2019S) (Homo sapiens (Human), UniProt Q5S007, G2019S); assay: Evaluation of inhibitory activity against LRRK2 (affinity bead competition binding), G2019S mutant; details: read-out: Residual active values (%) LRRK2(G2019S); for remaining binding at 0.1 µM: 100 nM; for remaining binding at 0.5 µM: 500 nM
Chain of LRRK2 mutant (G2019S) (Q5S007 whole entry G2019S, looked up): as the sequence (Q5S007 whole entry, looked up) above, with G2019S counted along it
Summary of the method: as §2

[7] = system: gastric cancer cell line AGS; assay: Cancer cell proliferation inhibitory activity evaluation 2 (CCK-8), AGS; assay type: cell-based; details: Homo sapiens, read-out: Cancer cell proliferation inhibitory activity AGS
α-SMA = assay: Fibrosis inhibition evaluation 2, palmitic acid-induced HepG2, real-time PCR, α-SMA; details: palmitic acid-induced HepG2 (Table 8)
MLK1 = MLK1 (Homo sapiens (Human), UniProt P80192); assay: Evaluation of inhibitory activity of enzyme units, MLK1 ([γ-33P]-ATP filter assay); assay type: biochemical
Chain of MLK1 (P80192 whole entry, looked up): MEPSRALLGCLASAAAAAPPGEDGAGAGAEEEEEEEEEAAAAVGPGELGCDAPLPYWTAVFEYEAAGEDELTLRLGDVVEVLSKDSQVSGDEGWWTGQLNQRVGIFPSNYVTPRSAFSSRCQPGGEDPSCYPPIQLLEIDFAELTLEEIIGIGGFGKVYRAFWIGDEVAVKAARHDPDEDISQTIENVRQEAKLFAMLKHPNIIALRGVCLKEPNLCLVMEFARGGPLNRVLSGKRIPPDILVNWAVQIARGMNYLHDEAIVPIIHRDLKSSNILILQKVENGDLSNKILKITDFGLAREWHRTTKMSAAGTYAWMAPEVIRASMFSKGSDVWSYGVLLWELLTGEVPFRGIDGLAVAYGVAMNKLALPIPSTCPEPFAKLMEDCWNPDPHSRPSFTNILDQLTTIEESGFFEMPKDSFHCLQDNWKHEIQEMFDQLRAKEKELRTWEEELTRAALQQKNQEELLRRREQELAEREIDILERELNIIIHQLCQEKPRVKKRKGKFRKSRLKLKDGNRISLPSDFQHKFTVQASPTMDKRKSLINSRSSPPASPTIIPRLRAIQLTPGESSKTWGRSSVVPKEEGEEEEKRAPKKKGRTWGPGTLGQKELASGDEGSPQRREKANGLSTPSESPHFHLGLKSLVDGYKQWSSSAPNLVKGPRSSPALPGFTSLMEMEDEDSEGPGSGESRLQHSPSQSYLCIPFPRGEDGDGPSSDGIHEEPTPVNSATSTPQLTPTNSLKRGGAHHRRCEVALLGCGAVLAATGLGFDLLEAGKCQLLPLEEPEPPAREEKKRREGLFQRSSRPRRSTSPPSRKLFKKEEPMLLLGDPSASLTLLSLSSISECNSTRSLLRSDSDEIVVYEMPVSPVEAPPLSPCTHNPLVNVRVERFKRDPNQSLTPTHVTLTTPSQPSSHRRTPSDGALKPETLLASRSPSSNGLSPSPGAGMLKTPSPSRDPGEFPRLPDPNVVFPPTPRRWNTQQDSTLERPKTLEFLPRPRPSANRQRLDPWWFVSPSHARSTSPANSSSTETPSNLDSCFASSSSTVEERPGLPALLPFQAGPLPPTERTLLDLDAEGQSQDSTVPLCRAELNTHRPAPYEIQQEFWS

[8] = system: human lung cancer cell line A549; assay: Cancer cell proliferation inhibitory activity evaluation 2 (CCK-8), A549; assay type: cell-based
[9] = system: gastric cancer cell line Hs746T; assay: Cancer cell proliferation inhibitory activity evaluation 2 (CCK-8), Hs746T; assay type: cell-based; details: Homo sapiens
MLK2 = MLK2 (Homo sapiens (Human), UniProt Q02779); assay: Evaluation of inhibitory activity of enzyme units, MLK2 ([γ-33P]-ATP filter assay); assay type: biochemical
[10] = 72 h, read-out: Cancer cell proliferation inhibitory activity Jurkat
[11] = A549, 72 h, read-out: Cancer cell proliferation inhibitory activity A549
[12] = 72 h, read-out: Cancer cell proliferation inhibitory activity Hs746T
[13] = U-937, 10 μM, 72 hours, CCK-8 (Table 3)
[14] = 10 μM, 72 hours, CCK-8, read-out: Cancer cell proliferation inhibitory activity Jurkat
[15] = A549, 10 μM, 72 hours, CCK-8, read-out: Cancer cell proliferation inhibitory activity A549
[16] = 10 μM, 72 hours, CCK-8, read-out: Cancer cell proliferation inhibitory activity Hs746T

Row | Structure (SMILES) | inhibition at 10 µM ([1]; U-937, 72 h) [%] | inhibition at 10 µM [2, 10] [%] | Relative degree of expression inhibition (%) TGF-β1 (TGF-β1) [%] | Relative degree of expression inhibition (%) Fibronectin-1 (Fibronectin-1) | IC50 (MLK3) [nM] | remaining binding at 0.1 µM (LRRK2 wild-type) [%] | remaining binding at 0.5 µM (LRRK2 wild-type) [%] | remaining binding at 0.1 µM (LRRK2 mutant (G2019S)) [%] | remaining binding at 0.5 µM (LRRK2 mutant (G2019S)) [%] | inhibition at 10 µM ([7]; 72 h) [%] | Relative degree of expression inhibition (%) α-SMA (α-SMA) [%] | IC50 (MLK1) [nM] | inhibition at 10 µM [1, 13] [%] | inhibition at 10 µM [2, 14] [%] | inhibition at 10 µM [8, 15] [%] | inhibition at 10 µM ([7]; 10 μM, 72 hours, CCK-8) [%] | inhibition at 10 µM [9, 16] [%] | other results
1 | CCS(=O)(=O)N1CC[C@H](Nc2c(Br)cnc3[nH]c(-c4cc(C)n(-c5cccc(N6CCOCC6)c5)c4C)nc23)C1 [Example 2, (S)-6-bromo-2-(2,5-dimethyl-1-(3-morpholinophenyl)-1H-pyrrol-3-yl)-N-(1-(ethylsulfonyl)pyrrolidine-3-yl)-3H-imidazo[4,5-b]pyridine-7-amine] | 10 to 50 | 10 to 50 | 97.39 | 77.72% | 4 | 17 | 3.5 | 4 | 0.8 | > 50 | 48.35 | – | – | – | – | – | – | inhibition at 10 µM [3]: > 50%; inhibition at 10 µM [4]: > 50%; inhibition at 10 µM [5]: > 50%; inhibition at 10 µM [6]: > 50%
2 | CCS(=O)(=O)N1CC[C@H](Nc2c(Br)cnc3nc(-c4cc(C)n(-c5cc(C(=O)NCCN(C)C)ccc5C)c4C)[nH]c23)C1 [Example 93, 3-(3-(6-bromo-7-(((S)-1-(ethylsulfonyl)pyrrolidine-3-yl)amino)-1H-imidazo[4,5-b]pyridine-2-yl)-2,5-dimethyl-1H-pyrrol-1-yl)-N-(2-(dimethylamino)ethyl)-4-methylbenzamide] | > 50 | > 50 | 42.54 | 74.05% | 54 | 60 | 51 | 66 | 25 | > 50 | 73.82 | 33 | – | – | – | – | – | inhibition at 10 µM [8, 11]: 10 to 50%; inhibition at 10 µM [9, 12]: > 50%
3 | Cc1ccc(C(=O)N2CCN(C)CC2)cc1-n1c(C)cc(-c2nc3ncc(Br)c(Nc4cccc(S(N)(=O)=O)c4)c3[nH]2)c1C [Example 95, 3-((6-bromo-2-(2,5-dimethyl-1-(2-methyl-5-(4-methylpiperazine-1-carbonyl)phenyl)-1H-pyrrol-3-yl)-1H-imidazo[4,5-b]pyridine-7-yl)amino)benzenesulfonamide] | – | – | 45.25 | 65.78% | 60 | 68 | 43 | 79 | 24 | – | 67.81 | 37 | < 10 | 10 to 50 | < 10 | 10 to 50 | 10 to 50 | –
4 | Cc1ccc(C(=O)NCCN(C)C)cc1-n1c(C)cc(-c2nc3ncc(Br)c(Nc4cccc(S(N)(=O)=O)c4)c3[nH]2)c1C [Example 96, 3-(3-(6-bromo-7-((3-sulfamoylphenyl)amino)-1H-imidazo[4,5-b]pyridine-2-yl)-2,5-dimethyl-1H-pyrrol-1-yl)-N-(2-(dimethylamino)ethyl)-4-methylbenzamide] | – | – | 92.86 | 61.67. % | 137 | 0.4 | 0 | 0.8 | 0.6 | – | 37.83 | 145 | < 10 | < 10 | < 10 | < 10 | 10 to 50 | –
5 | COCCOc1ccc(Nc2c(Br)cnc3[nH]c(-c4cc(C)n(-c5ccc6c(c5)OCO6)c4C)nc23)cc1 [Example 45, 2-(1-(benzo[d][1,3]dioxole-5-yl)-2,5-dimethyl-1H-pyrrol-3-yl)-6-bromo-N-(4-(2-methoxyethoxy)phenyl)-3H-imidazo[4,5-b]pyridine-7-amine] | – | – | 33.15 | 60.64% | 32 | – | – | – | – | – | 74.97 | 85 | 10 to 50 | < 10 | – | 10 to 50 | – | IC50 (MLK2): 524 nM
6 | CCS(=O)(=O)N1CC[C@H](Nc2c(Br)cnc3nc(-c4cc(C)n(-c5cccc(C(=O)N6CCN(C)CC6)c5C)c4C)[nH]c23)C1 [Example 81, (3-(3-(6-bromo-7-(((S)-1-(ethylsulfonyl)pyrrolidine-3-yl)amino)-1H-imidazo[4,5-b]pyridine-2-yl)-2,5-dimethyl-1H-pyrrol-1-yl)-2-methylphenyl) (4-methylpiperazine-1-yl) methanone] | > 50 | > 50 | 44.28 | 61.05% | 9 | 0.7 | 0.6 | 0 | 0.1 | > 50 | 61.69 | 14 | – | – | – | – | – | inhibition at 10 µM [8, 11]: 10 to 50%; inhibition at 10 µM [9, 12]: 10 to 50%
7 | Cc1ccc(NC(=O)CN2CCOCC2)cc1-n1c(C)cc(-c2nc3ncc(Br)c(Nc4cccc(S(N)(=O)=O)c4)c3[nH]2)c1C [Example 88, N-(3-(3-(6-bromo-7-((3-sulfamoylphenyl)amino)-1H-imidazo[4,5-b]pyridine-2-yl)-2,5-dimethyl-1H-pyrrol-1-yl)-4-methylphenyl)-2-morpholinoacetamide] | – | – | 56.45 | 86.78% | 52 | 73 | 46 | 57 | 19 | – | 74.86 | 82 | 10 to 50 | > 50 | 10 to 50 | > 50 | > 50 | –
8 | Cc1cc(-c2nc3c(Nc4ccc5c(c4)OCO5)c(Br)cnc3[nH]2)c(C)n1-c1cccc(S(N)(=O)=O)c1 [Example 44, 3-(3-(7-(benzo[d][1,3]dioxole-5-yl-amino)-6-bromo-3H-imidazo[4,5-b]pyridine-2-yl)-2,5-dimethyl-1H-pyrrol-1-yl)benzenesulfonamide] | – | – | 57.05 | 75.60% | 27 | – | – | – | – | – | 73.45 | 109 | 10 to 50 | 10 to 50 | – | 10 to 50 | – | IC50 (MLK2): 211 nM
